# Results: article PMC7377239, “Cardiovascular Effects of Polychlorinated Biphenyls and Their Major Metabolites” (Environmental Health Perspectives, 2020)
# Read-outs that look alike come from different tables or passages of the source.
# Columns and labels:
# [1] = test system: iCell endothelial cells (human iPSC-derived ECs); assay: High-content imaging cytotoxicity in iCell endothelial cells, 24 h; assay type: cell-based; conditions: Homo sapiens, Endothelial cell; for viability at 0.1 µM / activity at 0.1 µM: 0.10 µM
# Procedure, shortened: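 Readouts were vehicle-normalised and fitted to a four-parameter logistic model. POD was set at one SD beyond 0.5% DMSO control means, and 100 µM was assigned when no response was seen. Cells were monolayers of iCell endothelial cells imaged after 24 h compound exposure using nuclear, mitochondrial and calcein dyes.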
# HUVECs = assay: High-content imaging cytotoxicity in HUVECs, 24 h; assay type: cell-based, human; conditions: Homo sapiens, HUVEC, 24 h; for viability at 0.01 µM / activity at 0.01 µM: concentration 0.01 µM; for viability at 0.01 µM / activity at 0.01 µM / viability at 0.1 µM / activity at 0.1 µM / viability at 1 µM / activity at 1 µM / viability at 10 µM / activity at 10 µM / viability at 100 µM / activity at 100 µM: 0.00 µM = 100.00; for viability at 0.1 µM / activity at 0.1 µM: concentration 0.10 µM; for viability at 1 µM / activity at 1 µM: concentration 1.00 µM; for viability at 10 µM / activity at 10 µM: concentration 10.00 µM; for viability at 100 µM / activity at 100 µM: concentration 100.00 µM
# Procedure, shortened: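 Point-of-departure values come from four-parameter logistic fits of vehicle-normalized (0.5% DMSO) imaging readouts, cutoff one SD of vehicle means, 100μM where no concentration–response. Cells: HUVEC monolayers, passages 1–5, treated 24 h at 37°C, 5% CO2, then Hoechst 33342/MitoTracker Orange/calcein AM stained, imaged at 10×.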
# [2] = iPSC-EC, 0.00 µM = 100.00, read-out: endo.cyto.24hr
# [3] = iPSC-EC, 0.00 µM = 100.00, read-out: endo.mito.24hr
# [4] = iPSC-EC, 0.00 µM = 100.00, read-out: endo.mitoint.24hr
# [5] = iPSC-EC, 0.00 µM = 100.00, read-out: endo.nma.24hr
# [6] = iPSC-EC, 0.00 µM = 100.00, read-out: endo.tc.24hrs
# [7] = HUVECs, 24 hr, read-out: huvec.cyto.24hr
# [8] = HUVECs, 24 hr, read-out: huvec.mito.24hr
# [9] = HUVECs, 24 hr, read-out: huvec.mitoint.24hr
# [10] = HUVECs, 24 hr, read-out: huvec.nma.24hr
# [11] = HUVECs, 24 hrs, read-out: huvec.tc.24hrs
# [12] = endothelial cells (endo), cyto, 24 hr, read-out: POD endo.cyto.24hr
# [13] = endothelial cells (endo), mito, 24 hr, read-out: POD endo.mito.24hr
# [14] = endothelial cells (endo), mitoint, 24 hr, read-out: POD endo.mitoint.24hr
# [15] = endothelial cells (endo), nma, 24 hr, read-out: POD endo.nma.24hr
# [16] = endothelial cells (endo), tc, 24 hr, read-out: POD endo.tc.24hr
# [17] = cyto, 24 hr, read-out: POD huvec.cyto.24hr
# [18] = mito, 24 hr, read-out: POD huvec.mito.24hr
# [19] = mitoint, 24 hr, read-out: POD huvec.mitoint.24hr
# [20] = nma, 24 hr, read-out: POD huvec.nma.24hr
# [21] = tc, 24 hr, read-out: POD huvec.tc.24hr
smiles,measurement,setting,value
COc1cc(Cl)c(-c2cc(Cl)ccc2Cl)cc1Cl [4-OMe PCB52],viability at 0.01 µM,[1]; [2],104%
same,activity at 0.01 µM,[1]; [3],104%
same,activity at 0.01 µM,[1]; [4],88.9%
same,activity at 0.01 µM,[1]; [5],102%
same,viability at 0.01 µM,[1]; [6],104%
same,viability at 0.1 µM,[1]; [2],101%
same,activity at 0.1 µM,[1]; [3],101%
same,activity at 0.1 µM,[1]; [4],88%
same,activity at 0.1 µM,[1]; [5],102%
same,viability at 0.1 µM,[1]; [6],101%
same,viability at 1 µM,[1]; [2],104%
same,activity at 1 µM,[1]; [3],103%
same,activity at 1 µM,[1]; [4],84.8%
same,activity at 1 µM,[1]; [5],100%
same,viability at 1 µM,[1]; [6],104%
same,viability at 10 µM,[1]; [2],106%
same,activity at 10 µM,[1]; [3],106%
same,activity at 10 µM,[1]; [4],92.2%
same,activity at 10 µM,[1]; [5],99.7%
same,viability at 10 µM,[1]; [6],106%
same,viability at 100 µM,[1]; [2],53.2%
same,activity at 100 µM,[1]; [3],48.4%
same,activity at 100 µM,[1]; [4],74.5%
same,activity at 100 µM,[1]; [5],117%
same,viability at 100 µM,[1]; [6],56.6%
same,minimal effective concentration,"[1]; iPSC-EC, 100.00 = highest concentration tested, read-out: endo.cyto.24hr POD",43.5 µM
same,minimal effective concentration,"[1]; iPSC-EC, 100.00 = highest concentration tested, read-out: endo.mito.24hr POD",43.5 µM
same,minimal effective concentration,"[1]; iPSC-EC, 100.00 = highest concentration tested, read-out: endo.mitoint.24hr POD",100 µM
same,minimal effective concentration,"[1]; iPSC-EC, 100.00 = highest concentration tested, read-out: endo.nma.24hr POD",56.1 µM
same,minimal effective concentration,"[1]; iPSC-EC, 100.00 = highest concentration tested, read-out: endo.tc.24hrs POD",40.3 µM
same,viability at 0.01 µM,HUVECs; [7],105%
same,activity at 0.01 µM,HUVECs; [8],105%
same,activity at 0.01 µM,HUVECs; [9],107%
same,activity at 0.01 µM,HUVECs; [10],98.6%
same,viability at 0.1 µM,HUVECs; [7],102%
same,activity at 0.1 µM,HUVECs; [8],102%
same,activity at 0.1 µM,HUVECs; [9],114%
same,activity at 0.1 µM,HUVECs; [10],99.1%
same,viability at 1 µM,HUVECs; [7],85.9%
same,activity at 1 µM,HUVECs; [8],85.8%
same,activity at 1 µM,HUVECs; [9],113%
same,activity at 1 µM,HUVECs; [10],104%
same,viability at 10 µM,HUVECs; [7],57.8%
same,activity at 10 µM,HUVECs; [8],31.1%
same,activity at 10 µM,HUVECs; [9],11.1%
same,activity at 10 µM,HUVECs; [10],54.2%
same,viability at 100 µM,HUVECs; [7],60%
same,activity at 100 µM,HUVECs; [8],23%
same,activity at 100 µM,HUVECs; [9],13.4%
same,activity at 100 µM,HUVECs; [10],63.6%
same,minimal effective concentration,"HUVECs; HUVECs, 24 hr, MAX 100.00, read-out: huvec.cyto.24hr POD",0.78 µM
same,minimal effective concentration,"HUVECs; HUVECs, 24 hr, MAX 100.00, read-out: huvec.mito.24hr POD",0.55 µM
same,minimal effective concentration,"HUVECs; HUVECs, 24 hr, MAX 100.00, read-out: huvec.mitoint.24hr POD",2.69 µM
same,minimal effective concentration,"HUVECs; HUVECs, 24 hr, MAX 100.00, read-out: huvec.nma.24hr POD",2.36 µM
same,viability at 0.01 µM,HUVECs; [11],105%
same,viability at 0.1 µM,HUVECs; [11],102%
same,viability at 1 µM,HUVECs; [11],85.9%
same,viability at 10 µM,HUVECs; [11],57.9%
same,viability at 100 µM,HUVECs; [11],60%
same,minimal effective concentration,"HUVECs; HUVECs, 24 hrs, MAX 100.00, read-out: huvec.tc.24hrs POD",0.78 µM
"COc1ccc(-c2cccc(Cl)c2)cc1Cl [4-OMe-PCB 11, 4-methoxy-3,3′-dichlorobiphenyl]",minimal effective concentration,[1]; [12],100 µM
same,minimal effective concentration,[1]; [13],100 µM
same,minimal effective concentration,[1]; [14],100 µM
same,minimal effective concentration,[1]; [15],100 µM
same,minimal effective concentration,[1]; [16],100 µM
same,minimal effective concentration,HUVECs; [17],7.59 µM
same,minimal effective concentration,HUVECs; [18],6.19 µM
same,minimal effective concentration,HUVECs; [19],16 µM
same,minimal effective concentration,HUVECs; [20],6.39 µM
same,minimal effective concentration,HUVECs; [21],7.59 µM
"COc1cc(Cl)c(-c2cc(Cl)ccc2Cl)cc1Cl [4-OMe-PCB 52, 4-methoxy-2,2′,5,5′-tetrachlorobiphenyl]",minimal effective concentration,[1]; [12],43.5 µM
same,minimal effective concentration,[1]; [13],43.5 µM
same,minimal effective concentration,[1]; [14],100 µM
same,minimal effective concentration,[1]; [15],56.1 µM
same,minimal effective concentration,[1]; [16],40.3 µM
same,minimal effective concentration,HUVECs; [17],0.78 µM
same,minimal effective concentration,HUVECs; [18],0.55 µM
same,minimal effective concentration,HUVECs; [19],2.69 µM
same,minimal effective concentration,HUVECs; [20],2.36 µM
same,minimal effective concentration,HUVECs; [21],0.78 µM
